Tests used:
[1] = biological target: T1, CDK2/CycE (Homo sapiens, UniProt P24941); assay: CDK2/CycE kinase assay (TR-FRET, Method 2a); format: biochemical; conditions: 10 μM ATP
T1 construct: GST; purchased ProQinase GmbH (Freiburg, Germany); host or cells: insect cells (Sf9)
Description: 2a. CDK2/CycE Kinase Assay:
CDK2/CycE-inhibitory activity of compounds of the present invention was quantified employing the CDK2/CycE TR-FRET assay as described in the following paragraphs:
Recombinant fusion proteins of GST and human CDK2 and of GST and human CycE, expressed in insect cells (Sf9) and purified by Glutathion-Sepharose affinity chromatography, were purchased from ProQinase GmbH (Freiburg, Germany). As substrate for the kinase reaction biotinylated peptide biotin-Ttds-YISPLKSPYKISEG (C-terminus in amid form) was used which can be purchased e.g. from the company JERINI Peptide Technologies (Berlin, Germany).
(§1) For the assay 50 nl of a 100 fold concentrated solution of the test compound in DMSO was pipetted into a black low volume 384 well microtiter plate (Greiner Bio-One, Frickenhausen, Germany), 2 μl of a solution of CDK2/CycE in aqueous assay buffer [50 mM Tris/HCl pH 8.0, 10 mM MgCl2, 1.0 mM dithiothreitol, 0.1 mM sodium ortho-vanadate, 0.01% (v/v) Nonidet-P40 (Sigma)] were added and the mixture was incubated for 15 min at 22° C. to allow pre-binding of the test compounds to the enzyme before the start of the kinase reaction. […] The concentration of CDK2/CycE was adjusted depending of the activity of the enzyme lot and was chosen appropriate to have the assay in the linear range, typical concentrations were in the range of 130 ng/mL. The reaction was stopped by the addition of 5 μl of a solution of TR-FRET detection reagents (0.2 μM streptavidine-XL665 [Cisbio Bioassays, Codolet, France] and 1 nM anti-RB(pSer807/pSer811)-antibody from BD Pharmingen [#558389] and 1.2 nM LANCE EU-W1024 labeled anti-mouse IgG antibody [Perkin-Elmer, product no. AD0077]) in an aqueous EDTA-solution (100 mM EDTA, 0.2% (w/v) bovine serum albumin in 100 mM HEPES pH 7.5).
(§2) The resulting mixture was incubated 1 h at 22° C. to allow the formation of complex between the phosphorylated biotinylated peptide and the detection reagents. Subsequently the amount of phosphorylated substrate was evaluated by measurement of the resonance energy transfer from the Eu-chelate to the streptavidine-XL. Therefore, the fluorescence emissions at 620 nm and 665 nm after excitation at 350 nm was measured in a TR-FRET reader, e.g. a Rubystar (BMG Labtechnologies, Offenburg, Germany) or a Viewlux (Perkin-Elmer). The ratio of the emissions at 665 nm and at […] was taken as the measure for the amount of phosphorylated substrate. The data were normalised (enzyme reaction without inhibitor=0% inhibition, all other assay components but no enzyme=100% inhibition).

[2] = biological target: T2, CDK9/CycT1 (Homo sapiens, UniProt P50750); assay: CDK9/CycT1 kinase assay (TR-FRET, Method 1a); format: biochemical; conditions: for IC50: Method 1a, 10 μM ATP; for Selectivity CDK9 over CDK2: IC50 (CDK2)/IC50 (CDK9): Methods 1a and 2a, minimal values where CDK9 IC50 is at the assay limit
T2 construct: Recombinant full-length His-tagged human CDK9 and CycT1; His; purchased Invitrogen PV4131; host or cells: insect cells
Description: 1a. CDK9/CycT1 Kinase Assay:
CDK9/CycT1-inhibitory activity of compounds of the present invention was quantified employing the CDK9/CycT1 TR-FRET assay as described in the following paragraphs:
as §1, with “Recombinant full-length His-tagged human CDK9 and CycT1, expressed in insect cells and purified by Ni-NTA affinity chromatography, were purchased from Invitrogen (Cat. No PV4131). As substrate for the kinase reaction biotinylated peptide biotin-Ttds-YISPLKSPYKISEG (C-terminus in amid form) was used which can be purchased e.g. from the company JERINI Peptide Technologies (Berlin, Germany). For” for “For”, “CDK9/CycT1” for “CDK2/CycE”, “1 μg/mL.” for “130 ng/mL.”
as §2, with “HTRF” for “TR-FRET”

T2 sequence (P50750 whole entry): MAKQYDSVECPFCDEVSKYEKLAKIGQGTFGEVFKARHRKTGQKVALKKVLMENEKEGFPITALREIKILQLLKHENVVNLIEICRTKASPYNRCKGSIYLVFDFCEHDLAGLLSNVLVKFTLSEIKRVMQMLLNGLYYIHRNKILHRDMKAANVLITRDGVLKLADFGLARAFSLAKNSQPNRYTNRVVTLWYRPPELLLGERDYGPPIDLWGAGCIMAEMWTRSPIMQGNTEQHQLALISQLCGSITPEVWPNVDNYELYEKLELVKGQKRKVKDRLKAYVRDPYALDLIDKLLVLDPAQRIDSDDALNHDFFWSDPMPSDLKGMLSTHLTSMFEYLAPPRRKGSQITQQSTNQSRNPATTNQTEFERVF
T2 sequence (O60563 whole entry partner): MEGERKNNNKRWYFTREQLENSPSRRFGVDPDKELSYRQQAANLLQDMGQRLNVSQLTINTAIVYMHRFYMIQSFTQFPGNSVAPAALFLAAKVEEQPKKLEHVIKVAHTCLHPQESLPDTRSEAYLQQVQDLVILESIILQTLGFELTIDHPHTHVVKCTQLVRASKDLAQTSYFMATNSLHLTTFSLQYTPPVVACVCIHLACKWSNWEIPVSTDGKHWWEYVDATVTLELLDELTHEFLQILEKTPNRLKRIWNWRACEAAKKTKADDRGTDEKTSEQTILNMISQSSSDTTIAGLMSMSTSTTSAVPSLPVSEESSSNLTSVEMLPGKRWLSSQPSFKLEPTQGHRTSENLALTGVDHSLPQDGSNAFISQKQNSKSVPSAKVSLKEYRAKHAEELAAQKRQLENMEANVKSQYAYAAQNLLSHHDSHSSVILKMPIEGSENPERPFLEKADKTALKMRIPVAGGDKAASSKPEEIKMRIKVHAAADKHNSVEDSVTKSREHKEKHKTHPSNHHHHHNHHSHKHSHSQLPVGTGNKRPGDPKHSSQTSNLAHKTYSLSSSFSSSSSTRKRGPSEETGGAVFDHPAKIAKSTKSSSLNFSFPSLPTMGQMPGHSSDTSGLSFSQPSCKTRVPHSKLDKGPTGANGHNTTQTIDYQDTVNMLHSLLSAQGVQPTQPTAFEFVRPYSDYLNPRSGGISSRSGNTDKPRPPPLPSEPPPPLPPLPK

| IC50 [1] | IC50 [2] | Selectivity CDK9 over CDK2: IC50 (CDK2)/IC50 (CDK9) [2] | SMILES |
| --- | --- | --- | --- |
| 16.7 nM | 4 nM | 4.2 | C[S+]([O-])Cc1cc2nc(c1)OCCCCOc1cc(F)ccc1-c1cc(ncc1F)N2 (racemic) [Example 13, (rac)-16,20-difluoro-9-[(methylsulfinyl)methyl]-2,3,4,5-tetrahydro-12H-11,7-(azeno)-13,17-(metheno)-1,6,12,14-benzodioxadiazacyclononadecine] |
| 4.6 nM | 2.8 nM | 1.7 | C[S+]([O-])Cc1cc2nc(c1)OCCCOc1cc(F)ccc1-c1cc(ncc1F)N2 (racemic) [Example 4, (rac)-15,19-Difluoro-8-[(methylsulfinyl)methyl]-3,4-dihydro-2H,11H-10,6-(azeno)-12,16-(metheno)-1,5,11,13-benzodioxadiazacyclooctadecine] |
| 5 nM | 3.8 nM | 1.3 | CS(=O)(=O)Cc1cc2nc(c1)OCCCOc1cc(F)ccc1-c1cc(ncc1F)N2 [Example 8, 15,19-difluoro-8-[(methylsulfonyl)methyl]-3,4-dihydro-2H,11H-10,6-(azeno)-12,16-(metheno)-1,5,11,13-benzodioxadiazacyclooctadecine] |
| 2 nM | 3 nM | 0.65 | CS(=N)(=O)Cc1cc2nc(c1)OCCCOc1cc(F)ccc1-c1cc(ncc1F)N2 (racemic) [Example 5, (rac)-15,19-Difluoro-8-[(S-methylsulfonimidoyl)methyl]-3,4-dihydro-2H,11H-10,6-(azeno)-12,16-(metheno)-1,5,11,13-benzodioxadiazacyclooctadecine] |
| 18200 nM | 18 nM | 963.7 | CSCc1cc2nc(c1)OCCOc1cc(F)ccc1-c1cc(ncc1F)N2 [Example 9, 14,18-Difluoro-7-[(methylsulfanyl)methyl]-2,3-dihydro-10H-9,5-(azeno)-11,15-(metheno)-1,4,10,12-benzodioxadiazacycloheptadecine] |

From patent publication US9963464B2, “Macrocyclic compounds” (Bayer Pharma Aktiengesellschaft, priority 2014, dated 2018)
